The values below come from paper PMC6934184, “Selective DNA-PKcs inhibition extends the therapeutic index of localized radiotherapy and chemotherapy” (The Journal of Clinical Investigation, 2019).

The structures appear in SMILES notation.

In the assay the target is T1, GSK3A (GSK3 alpha) (Homo sapiens, UniProt P49840).
T1 construct: purchased Thermo Fisher Scientific (Life Technologies) SelectScreen
The assay is described as follows: SelectScreen Z'LYTE. The class given is biochemical. In outline: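 Percent values come from Thermo SelectScreen profiling of NU5455, combining activity and binding assays. CSF1R was run in Z'LYTE format at Km app ATP, and CAMK1 in Adapta format with ATP listed at 10.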

T1 sequence (P49840 whole entry): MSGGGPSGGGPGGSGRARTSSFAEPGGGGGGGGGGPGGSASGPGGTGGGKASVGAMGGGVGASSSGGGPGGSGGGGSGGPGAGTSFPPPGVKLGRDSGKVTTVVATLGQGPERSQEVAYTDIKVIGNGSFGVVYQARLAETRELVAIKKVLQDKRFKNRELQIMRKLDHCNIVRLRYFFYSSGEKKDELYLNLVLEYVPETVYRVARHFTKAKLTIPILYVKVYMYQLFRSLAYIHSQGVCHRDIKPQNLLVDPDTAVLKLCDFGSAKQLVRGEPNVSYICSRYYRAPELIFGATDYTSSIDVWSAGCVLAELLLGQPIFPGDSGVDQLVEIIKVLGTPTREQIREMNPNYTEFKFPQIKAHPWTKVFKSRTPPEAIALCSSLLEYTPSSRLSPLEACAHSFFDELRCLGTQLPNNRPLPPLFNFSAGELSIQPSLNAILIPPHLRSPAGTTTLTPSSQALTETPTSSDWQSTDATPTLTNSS

In general, inhibition refers to the change of the read-out against control, counted positive when it falls. As to `CN(C(=O)CN1CCOCC1)c1ccc2sc3c(-c4cccc5c(=O)cc(N6CC7CCC(C6)O7)oc45)cccc3c2c1` [NU5455], the inhibition at 1 µM is -5.5%.
